≈ marks a conversion by molar mass, not a printed value.
Legend:
[1] = tested on: Fusarium moliniforme (Fungus C); experiment: Antifungal Activity (paper disc on agar); conditions: 30 μl of 300 ppm acetone solution, 25° C., 5 days
Protocol: (§4) A fungal disc of about 4 mm diameter was inoculated on an agar medium (2% by weight malt extract, 1% glucose, 0.3% peptone and 2% agar) in a petri dish of diameter 9 cm, by placing the disc on the center of the medium. Paper disc specimens were prepared by impregnating 30 μl of an acetone solution containing 300 ppm of the test compound into the disc (diameter 8 mm, thickness 0.7 mm) and then subjecting it to dry sterilization. The disc specimens were placed in a circle at about 1 cm distance from the fringe of the grown fungus, three days after the inoculation. The specimens were then maintained at 25° C. for 5 days, after which the antifungal activity was determined by visual observation of infection of the specimens by the fungus. The fungi tested were:
Fusarium moliniforme (Fungus C).
The antifungal activity is indicated by the following ratings:

[2] = tested on: Aspergillus fumigatus; experiment: Antifungal Test (MIC, Sabouraud's agar); format: cell-based; conditions: 120 h, A. fumiga, 27° C., 5 days
Protocol: (§1) (i) Preparation of the test solution: The sample to be tested was examined to determine a suitable solvent from those listed below and the method of dissolution, and then the sample was weighed (about 10 mg), dissolved in the selected solvent and diluted with sterilized distilled water to a concentration of 500 μg/ml. Samples of the resulting solution were then subjected to sequential dilution to half the previous concentration to prepare I2 samples in which the concentration of active compound is progressively halved.
(§2) (ii) Test procedure for antifungal activity: Using Nunklon (Registered trademark) 24.hole plates (manufactured by Nunk K. K.), 0.1 ml each of the diluted solutions described above was poured into a hole, 0.9 ml of Sabouraud's agar medium was added to each hole, giving a total of 1 ml in each hole, and mixed to prepare the plate medium.
5 Aspergillus fumigatus (A. fumiga)
(§3) These test strains were inoculated by means of a slant on Sabouraud's agar medium, cultured at 27° C. for 2 days for the yeast strains or for 7 to 14 days for the mold strains, and, kept intact, preserved at 5° C. (subcultured every 1 month). On the day of the test, in the case of the yeast medium, physiological saline to which had previously been added Tween 80 in an amount of 0.1% (w/v) was added to each medium to prepare 10^6 cells/ml suspensions; and, in the case of the mold medium, 4 ml each of the solution above was added to the surface of the agar slant, the surface was rubbed slightly with a stirrer or a platinum loop to suspend the spores, and then, by filtration through a funnel on which 2 sterilized gauzes were placed one upon another, 10^6 cells/ml suspensions were prepared. Using an Eppendorf pipette, 0.1 ml each of these suspension preparations was inoculated and cultivated. The culture was conducted at 27° C. for 2 days for the three strains of yeast, for 5 days for molds 4 , 5 and 6, and for 7 days for molds 7 and 8 to determine minimal inhibitory concentrations of the test samples.

[3] = tested on: Trichophyton mentagrophytes Sc.; experiment: Antifungal Test (MIC, Sabouraud's agar); format: cell-based; conditions: 168 h, T. mentag, 27° C., 7 days
Protocol: as §1, §2
7 Trichophyton mentagrophytes Sc. (T. mentag)
as §3

[4] = tested on: Microsporum gypseum; experiment: Antifungal Test (MIC, Sabouraud's agar); format: cell-based; conditions: Nannizzia gypsea, 120 h
Protocol: as §1, §2
6 Microsporum gypseum (M. gypseu)
as §3

[5] = tested on: Mucor mucedo; experiment: Antifungal Test (MIC, Sabouraud's agar); format: cell-based; conditions: 120 h, M. mucedo, 27° C., 5 days, read-out: MIC
[6] = tested on: Cryptococcus neoformans 58063; experiment: Antifungal Test (MIC, Sabouraud's agar); format: cell-based; conditions: Cryptococcus neoformans, 58063, 48 h; C. neofor; 27° C., 2 days
Protocol: as §1, §2
3 Cryptococcus neoformans 58063 (C. neofor)
as §3

[7] = tested on: Coriolus versicolor (Fungus D); experiment: Wood-preservative Activity (Antidecay); conditions: paper disc, 30 μl of 300 ppm acetone solution, 25° C., 5 days
Protocol: (§5) A fungal disc of about 4 mm diameter was inoculated on an agar medium (2% by weight malt extract, 1% glucose, 0.3% peptone and 2% agar) in a petri dish of diameter 9 cm, by placing the disc on the center of the medium. Paper disc specimens were prepared by impregnating 30 μl of an acetone solution containing 300 ppm of the test compound into the disc (diameter 8 mm, thickness 0.7 mm) and then subjecting it to dry sterilization. The disc specimens were placed in a circle at about 1 cm distance from the fringe of the grown fungus, three days after the inoculation. The specimens were then maintained at 25° C. for 5 days, after which the antifungal activity was determined by visual observation of infection of the specimens by the fungus.
(§6) The procedure described in Experiment 7 was repeated, except that the fungi tested were Coriolus versicolor (Fungus D) and Tyromyces palustris (Fungus E), which are prescribed in JIS A-9201.

[8] = tested on: Candida albicans 427; experiment: Antifungal Test (MIC, Sabouraud's agar); format: cell-based; conditions: Candida albicans, 48 h; C. alb 427; 27° C., 2 days; read-out: MIC
[9] = tested on: Aspergillus niger (Fungus A); experiment: Antifungal Activity (paper disc on agar); conditions: 30 μl of 300 ppm acetone solution, 25° C., 5 days
Protocol: as §4
Aspergillus niger (Fungus A),

[10] = tested on: Trichophyton rubrum Sc.; experiment: Antifungal Test (MIC, Sabouraud's agar); format: cell-based; conditions: 168 h, T. rubrum, 27° C., 7 days, read-out: MIC
[11] = tested on: Gliocladium virens (Fungus B); experiment: Antifungal Activity (paper disc on agar); conditions: 30 μl of 300 ppm acetone solution, 25° C., 5 days
Protocol: as §4
Gliocladium virens (Fungus B), and

[12] = tested on: Candida Albicans Sc.; experiment: Antifungal Test (MIC, Sabouraud's agar); format: cell-based; conditions: 48 h, C. albica, 27° C., 2 days
Protocol: as §1, §2
1 Candida Albicans Sc. (C. albica)
as §3

[13] = tested on: Tyromyces palustris (Fungus E); experiment: Wood-preservative Activity (Antidecay); conditions: paper disc, 30 μl of 300 ppm acetone solution, 25° C., 5 days
Protocol: as §5, §6

SMILES: C[Si](C)(C)CC(O)(Cn1cncn1)c1ccc(F)cc1F (stereo not shown) [Compound 1-12, 2-(2,4-Difluorophenyl)-1-(1H-1,2,4-triazole-1-yl)-3-trimethylsilyl-2-propanol]
- antifungal activity, Fungus C [1]: +
- MIC [2]: 12.5 µg/mL (≈ 40.1 µM)
- MIC [3]: 0.8 µg/mL (≈ 2.57 µM)
- MIC [4]: 1.5 µg/mL (≈ 4.82 µM)
- MIC [5]: 12.5 µg/mL (≈ 40.1 µM)
- MIC [6]: 6.2 µg/mL (≈ 19.9 µM)
- wood-preservative (antidecay) activity, Fungus D [7]: +
- MIC [8]: > 50 µg/mL
- antifungal activity, Fungus A [9]: -
- MIC [10]: 0.8 µg/mL (≈ 2.57 µM)
- antifungal activity, Fungus B [11]: +
- MIC [12]: > 50 µg/mL
- wood-preservative (antidecay) activity, Fungus E [13]: +

— patent US5306712A, “Fungicidal silicon-containing compounds and their agrochemical and medicinal uses” (Sanyo Company, Limited, priority 1991, dated 1994)
